Data on one compound can be found in ChEMBL document CHEMBL1212924 (J Med Chem, 2010).

The structures appear in SMILES notation. pIC50: −log10 of the molar value. Active and inactive are the calls of the source. The calls are words filed in the database; no cut-off is given here. Bounds are passed on as bounds.

The nature of series [1]: Clearance in rat at 1 mg/kg, iv and 2 mg/kg, po. Format: ADME, organism-based. The conditions noted are these: in vivo.
In the next series the test system is Rattus norvegicus. As to the kind of experiment: Reduction in intraocular pressure in Brown norway rat at 40 ug administered as drops in eye after 2 hrs. It is filed as functional, organism-based.
Series [2] can be described thus: Inhibition of p38.
The target of the next series is CYP3A4 (Homo sapiens, UniProt P08684). As to the kind of experiment: Inhibition of CYP3A4 at 10 uM. Format: ADME.
Series [3] concerns the target Rho-associated protein kinase 1 (Homo sapiens, UniProt Q13464).
Series [4] addresses Dual specificity protein kinase CLK4 (Homo sapiens) (UniProt Q9HAZ1). As to the kind of experiment: Inhibition of CLK4 at 3 uM.
The target in series [5] is Serine/threonine-protein kinase 38 (Homo sapiens) (UniProt Q15208). As to the kind of experiment: Inhibition of NDR1 at 3 uM.
Serine/threonine-protein kinase 38 (Homo sapiens), sequence (Q15208 2-465 limits assumed): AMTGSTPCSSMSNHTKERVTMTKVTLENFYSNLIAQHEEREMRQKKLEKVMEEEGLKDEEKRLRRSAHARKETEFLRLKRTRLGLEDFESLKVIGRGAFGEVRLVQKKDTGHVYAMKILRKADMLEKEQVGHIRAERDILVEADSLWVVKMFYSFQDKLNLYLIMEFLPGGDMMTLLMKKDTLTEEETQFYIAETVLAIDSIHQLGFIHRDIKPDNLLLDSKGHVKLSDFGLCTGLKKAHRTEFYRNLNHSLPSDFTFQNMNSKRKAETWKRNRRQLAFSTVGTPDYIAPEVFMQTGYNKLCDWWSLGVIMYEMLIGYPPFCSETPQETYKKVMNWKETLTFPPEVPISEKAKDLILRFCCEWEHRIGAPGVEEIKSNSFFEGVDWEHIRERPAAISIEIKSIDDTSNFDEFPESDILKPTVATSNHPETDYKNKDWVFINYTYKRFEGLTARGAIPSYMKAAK
In series [6] the target is Serine/threonine-protein kinase MRCK alpha (Homo sapiens, UniProt Q5VT25). As to the kind of experiment: Inhibition of MRCKalpha.
Series [7] in a line: Half life in rat at 1 mg/kg, iv and 2 mg/kg, po. The note with it: in vivo. It is filed as ADME, organism-based.
Series [8] concerns the target Dual specificity protein kinase CLK1 (Homo sapiens) (UniProt P49759). As to the kind of experiment: Inhibition of CLK1 at 3 uM.
In series [9] the target is Phosphatidylinositol 4,5-bisphosphate 3-kinase catalytic subunit beta isoform (Homo sapiens) (UniProt P42338). As to the kind of experiment: Inhibition of PI3Kbeta at 3 uM.
Series [10] deals with T1, Serine/threonine-protein kinase LATS2 (Homo sapiens) (UniProt Q9NRM7).
T1 sequence (whole entry): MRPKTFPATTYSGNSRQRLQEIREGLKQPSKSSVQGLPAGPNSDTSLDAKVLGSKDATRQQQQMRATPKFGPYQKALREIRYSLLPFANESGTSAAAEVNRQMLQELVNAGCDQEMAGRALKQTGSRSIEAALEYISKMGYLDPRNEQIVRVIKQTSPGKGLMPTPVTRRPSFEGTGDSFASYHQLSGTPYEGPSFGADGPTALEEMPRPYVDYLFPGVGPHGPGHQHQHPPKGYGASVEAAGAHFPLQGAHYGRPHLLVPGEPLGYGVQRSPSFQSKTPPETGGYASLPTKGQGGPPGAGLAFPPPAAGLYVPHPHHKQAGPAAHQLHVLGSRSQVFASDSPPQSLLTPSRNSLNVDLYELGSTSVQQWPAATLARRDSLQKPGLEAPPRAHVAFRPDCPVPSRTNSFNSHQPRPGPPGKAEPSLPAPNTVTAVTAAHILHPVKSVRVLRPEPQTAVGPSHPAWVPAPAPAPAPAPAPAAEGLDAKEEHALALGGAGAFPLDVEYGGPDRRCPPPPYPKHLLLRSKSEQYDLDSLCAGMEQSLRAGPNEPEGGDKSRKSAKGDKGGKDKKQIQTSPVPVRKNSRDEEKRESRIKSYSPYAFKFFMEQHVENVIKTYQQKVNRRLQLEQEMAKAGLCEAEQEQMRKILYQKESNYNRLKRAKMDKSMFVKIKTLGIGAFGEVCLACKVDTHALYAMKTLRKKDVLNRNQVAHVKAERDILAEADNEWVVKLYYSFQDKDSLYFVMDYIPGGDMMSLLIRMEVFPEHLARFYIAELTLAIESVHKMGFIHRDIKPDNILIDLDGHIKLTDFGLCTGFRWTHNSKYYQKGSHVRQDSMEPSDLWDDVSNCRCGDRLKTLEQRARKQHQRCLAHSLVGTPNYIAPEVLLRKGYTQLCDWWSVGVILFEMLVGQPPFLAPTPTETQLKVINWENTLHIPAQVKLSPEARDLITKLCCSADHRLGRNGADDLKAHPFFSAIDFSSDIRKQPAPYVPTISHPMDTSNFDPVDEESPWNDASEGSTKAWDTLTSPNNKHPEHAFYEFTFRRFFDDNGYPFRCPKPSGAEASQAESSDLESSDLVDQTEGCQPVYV
As to the kind of experiment: Inhibition of Lats2 at 3 uM.

A short description of another series: in vitro. The note with it: human, liver microsomes.
The next series deals with CYP2D6 (Homo sapiens, UniProt P10635). As to the kind of experiment: Inhibition of CYP2D6 at 10 uM. Format: ADME.
CYP2D6, sequence (P10635 whole entry): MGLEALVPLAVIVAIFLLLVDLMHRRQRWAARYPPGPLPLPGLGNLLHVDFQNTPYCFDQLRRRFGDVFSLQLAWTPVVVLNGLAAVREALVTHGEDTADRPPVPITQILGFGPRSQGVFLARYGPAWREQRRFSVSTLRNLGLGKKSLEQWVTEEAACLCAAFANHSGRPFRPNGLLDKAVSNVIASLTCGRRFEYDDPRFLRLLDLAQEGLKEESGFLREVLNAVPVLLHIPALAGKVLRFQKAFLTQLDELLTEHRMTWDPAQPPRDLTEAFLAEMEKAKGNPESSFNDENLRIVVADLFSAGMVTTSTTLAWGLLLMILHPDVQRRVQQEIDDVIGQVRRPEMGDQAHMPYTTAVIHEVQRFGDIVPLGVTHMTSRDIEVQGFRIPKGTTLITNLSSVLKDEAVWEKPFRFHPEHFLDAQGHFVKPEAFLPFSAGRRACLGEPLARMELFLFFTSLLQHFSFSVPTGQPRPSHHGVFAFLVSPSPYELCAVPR
A further series addresses T2, CYP1A2 (Homo sapiens, UniProt P05177).
T2 sequence (P05177 whole entry): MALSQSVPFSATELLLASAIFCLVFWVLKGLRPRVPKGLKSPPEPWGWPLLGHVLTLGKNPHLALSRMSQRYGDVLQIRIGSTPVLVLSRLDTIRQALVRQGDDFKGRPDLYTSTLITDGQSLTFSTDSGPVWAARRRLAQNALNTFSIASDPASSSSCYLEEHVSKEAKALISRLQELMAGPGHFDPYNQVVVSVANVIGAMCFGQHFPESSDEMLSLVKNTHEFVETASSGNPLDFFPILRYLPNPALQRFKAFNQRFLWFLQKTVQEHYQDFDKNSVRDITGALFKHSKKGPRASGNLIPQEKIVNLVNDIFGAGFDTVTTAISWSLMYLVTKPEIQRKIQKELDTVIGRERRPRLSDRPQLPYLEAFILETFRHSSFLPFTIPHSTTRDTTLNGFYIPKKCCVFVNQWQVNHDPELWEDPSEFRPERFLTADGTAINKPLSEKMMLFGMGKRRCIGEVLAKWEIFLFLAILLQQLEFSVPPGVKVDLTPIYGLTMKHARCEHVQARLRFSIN
As to the kind of experiment: Inhibition of CYP1A2 at 10 uM. It is filed as ADME.

Series [11] concerns the target Serine/threonine-protein kinase MRCK beta (Homo sapiens) (UniProt Q9Y5S2). As to the kind of experiment: Inhibition of MRCKbeta at 3 uM.
Series [12] concerns the target Serine/threonine-protein kinase 33 (Homo sapiens) (UniProt Q9BYT3). As to the kind of experiment: Inhibition of STK33 at 3 uM.
In another series the target is CYP2C9 (Homo sapiens, UniProt P11712). As to the kind of experiment: Inhibition of CYP2C9 at 10 uM. It is filed as ADME.
CYP2C9, sequence (P11712 whole entry): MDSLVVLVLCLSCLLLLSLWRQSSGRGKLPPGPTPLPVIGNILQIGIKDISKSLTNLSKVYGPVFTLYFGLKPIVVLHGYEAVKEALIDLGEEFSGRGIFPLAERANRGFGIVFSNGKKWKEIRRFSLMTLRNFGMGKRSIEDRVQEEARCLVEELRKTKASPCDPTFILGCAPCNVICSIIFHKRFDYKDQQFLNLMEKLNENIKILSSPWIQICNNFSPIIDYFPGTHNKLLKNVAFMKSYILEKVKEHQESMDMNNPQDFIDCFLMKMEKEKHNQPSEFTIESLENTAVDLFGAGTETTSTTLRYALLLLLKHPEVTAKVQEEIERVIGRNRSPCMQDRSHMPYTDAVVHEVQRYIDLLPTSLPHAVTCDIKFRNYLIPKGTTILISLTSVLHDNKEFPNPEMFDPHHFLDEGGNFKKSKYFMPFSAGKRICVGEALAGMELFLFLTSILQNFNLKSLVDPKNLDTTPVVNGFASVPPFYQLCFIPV
Series [13] can be described thus: Oral bioavailability in rat at 2 mg/kg. It is filed as ADME, organism-based. The note with it: in vivo.
The nature of series [14]: Volume of distribution in rat at 1 mg/kg, iv and 2 mg/kg, po. Format: ADME, organism-based. The conditions noted are these: in vivo.
The target in series [15] is Mitogen-activated protein kinase 10 (Homo sapiens, UniProt P53779).
Mitogen-activated protein kinase 10, sequence (P53779 whole entry): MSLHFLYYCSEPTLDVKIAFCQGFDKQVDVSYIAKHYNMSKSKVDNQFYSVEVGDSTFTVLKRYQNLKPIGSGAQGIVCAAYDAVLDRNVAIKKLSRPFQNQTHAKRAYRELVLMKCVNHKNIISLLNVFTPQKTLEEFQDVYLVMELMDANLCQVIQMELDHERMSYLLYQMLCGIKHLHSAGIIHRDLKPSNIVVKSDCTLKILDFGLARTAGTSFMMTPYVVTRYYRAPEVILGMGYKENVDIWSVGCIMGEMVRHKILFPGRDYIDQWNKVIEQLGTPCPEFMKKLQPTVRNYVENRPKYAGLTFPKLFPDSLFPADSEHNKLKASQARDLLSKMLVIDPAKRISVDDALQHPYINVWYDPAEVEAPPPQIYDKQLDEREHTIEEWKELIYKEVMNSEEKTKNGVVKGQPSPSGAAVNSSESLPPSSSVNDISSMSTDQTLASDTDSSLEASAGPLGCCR

Dual specificity protein kinase CLK4 (Homo sapiens), sequence (Q9HAZ1 whole entry, looked up): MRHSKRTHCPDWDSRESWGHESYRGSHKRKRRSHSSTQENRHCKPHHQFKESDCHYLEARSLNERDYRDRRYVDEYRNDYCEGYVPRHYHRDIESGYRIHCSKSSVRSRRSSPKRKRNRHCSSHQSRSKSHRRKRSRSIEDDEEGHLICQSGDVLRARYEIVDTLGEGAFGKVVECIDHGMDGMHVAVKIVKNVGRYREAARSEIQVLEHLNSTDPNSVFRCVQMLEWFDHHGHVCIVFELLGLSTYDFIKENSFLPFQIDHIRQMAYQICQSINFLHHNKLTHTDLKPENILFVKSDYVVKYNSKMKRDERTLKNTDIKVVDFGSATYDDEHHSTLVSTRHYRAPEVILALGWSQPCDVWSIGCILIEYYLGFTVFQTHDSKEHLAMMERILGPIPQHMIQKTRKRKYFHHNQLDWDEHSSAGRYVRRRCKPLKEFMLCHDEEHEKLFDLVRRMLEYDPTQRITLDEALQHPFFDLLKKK
Serine/threonine-protein kinase MRCK beta (Homo sapiens), sequence (Q9Y5S2 whole entry): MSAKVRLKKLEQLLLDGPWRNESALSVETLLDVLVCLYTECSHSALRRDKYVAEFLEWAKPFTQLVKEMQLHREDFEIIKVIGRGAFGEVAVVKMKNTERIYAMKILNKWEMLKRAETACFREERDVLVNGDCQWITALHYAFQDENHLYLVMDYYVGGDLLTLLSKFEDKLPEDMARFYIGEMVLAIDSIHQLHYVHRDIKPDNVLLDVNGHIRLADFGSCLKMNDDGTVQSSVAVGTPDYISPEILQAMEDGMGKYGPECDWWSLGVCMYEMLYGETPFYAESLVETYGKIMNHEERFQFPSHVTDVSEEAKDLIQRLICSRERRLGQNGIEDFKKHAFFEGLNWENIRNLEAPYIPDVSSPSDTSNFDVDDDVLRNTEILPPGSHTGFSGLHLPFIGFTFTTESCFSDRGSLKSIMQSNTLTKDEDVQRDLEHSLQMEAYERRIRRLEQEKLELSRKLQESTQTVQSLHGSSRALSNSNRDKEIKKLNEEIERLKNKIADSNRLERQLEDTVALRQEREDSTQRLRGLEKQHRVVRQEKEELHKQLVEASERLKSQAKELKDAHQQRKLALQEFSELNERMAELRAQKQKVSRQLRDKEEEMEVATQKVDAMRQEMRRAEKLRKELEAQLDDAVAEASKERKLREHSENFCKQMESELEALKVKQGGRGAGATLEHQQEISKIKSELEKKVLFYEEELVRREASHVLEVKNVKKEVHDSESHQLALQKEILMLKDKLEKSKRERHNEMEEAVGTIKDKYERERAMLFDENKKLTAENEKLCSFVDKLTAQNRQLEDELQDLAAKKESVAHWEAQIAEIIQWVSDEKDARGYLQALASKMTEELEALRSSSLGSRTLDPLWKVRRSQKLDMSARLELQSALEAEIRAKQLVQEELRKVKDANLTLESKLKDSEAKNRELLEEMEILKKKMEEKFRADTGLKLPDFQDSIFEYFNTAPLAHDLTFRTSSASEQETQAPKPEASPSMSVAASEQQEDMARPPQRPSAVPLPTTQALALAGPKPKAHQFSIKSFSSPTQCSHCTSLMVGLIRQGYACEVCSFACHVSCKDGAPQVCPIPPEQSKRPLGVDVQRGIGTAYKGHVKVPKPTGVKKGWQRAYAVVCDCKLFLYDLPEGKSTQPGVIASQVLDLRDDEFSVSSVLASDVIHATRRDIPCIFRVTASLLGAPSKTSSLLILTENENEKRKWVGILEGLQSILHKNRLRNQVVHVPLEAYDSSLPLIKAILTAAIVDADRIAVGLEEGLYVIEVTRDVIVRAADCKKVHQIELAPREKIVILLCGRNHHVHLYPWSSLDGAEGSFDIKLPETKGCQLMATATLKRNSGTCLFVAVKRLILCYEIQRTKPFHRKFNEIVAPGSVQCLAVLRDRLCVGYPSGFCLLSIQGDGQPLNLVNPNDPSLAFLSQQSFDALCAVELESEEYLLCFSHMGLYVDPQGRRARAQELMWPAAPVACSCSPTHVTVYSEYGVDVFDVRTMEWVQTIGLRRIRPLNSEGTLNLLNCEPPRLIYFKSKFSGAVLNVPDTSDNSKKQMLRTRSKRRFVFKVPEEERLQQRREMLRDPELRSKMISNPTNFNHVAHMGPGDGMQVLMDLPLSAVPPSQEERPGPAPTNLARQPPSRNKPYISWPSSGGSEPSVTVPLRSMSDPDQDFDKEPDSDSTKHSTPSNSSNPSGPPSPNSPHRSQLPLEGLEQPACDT
Serine/threonine-protein kinase 33 (Homo sapiens), sequence (Q9BYT3 whole entry, looked up): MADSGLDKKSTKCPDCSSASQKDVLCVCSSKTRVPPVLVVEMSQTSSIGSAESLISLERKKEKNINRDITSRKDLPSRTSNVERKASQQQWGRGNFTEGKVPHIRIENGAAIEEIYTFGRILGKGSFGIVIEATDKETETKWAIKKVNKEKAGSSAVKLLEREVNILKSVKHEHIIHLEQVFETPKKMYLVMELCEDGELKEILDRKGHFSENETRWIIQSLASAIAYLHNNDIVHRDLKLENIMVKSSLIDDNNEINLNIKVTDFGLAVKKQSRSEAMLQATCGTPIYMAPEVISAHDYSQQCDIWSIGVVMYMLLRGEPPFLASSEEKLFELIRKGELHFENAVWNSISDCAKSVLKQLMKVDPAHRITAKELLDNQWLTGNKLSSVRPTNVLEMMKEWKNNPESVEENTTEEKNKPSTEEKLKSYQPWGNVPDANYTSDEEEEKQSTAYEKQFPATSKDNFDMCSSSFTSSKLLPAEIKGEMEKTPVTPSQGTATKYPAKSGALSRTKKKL
Description for in vitro: Half life in human liver microsome at 2 mg/mL

The compound `COc1ccc2c(c1)C[C@H](C(=O)Nc1ccc(-c3cn[nH]c3)cc1OCC1CCN(C)CC1)NC2` returned a clearance in series [1] of 41 mL/min/kg. For the same compound, in the series on Rattus norvegicus, the outcome was Active. The pIC50 in series [2] is less than 4.70; in series [3] it was 8.00; in [6], 6.17; in series [15], less than 4.70. For the same compound, the inhibition at 10 µM against CYP3A4 is 15%; against CYP2D6, 52%; at CYP1A2, 3%; against CYP2C9, 45%. Further, the inhibition was determined as 91% in series [4]; 72% in series [5]; 86% in [8]; 74% in [9]; 75% in series [10]; 77% in series [11]. For the same compound, the inhibition in series [12] stood at 66%. The results for the half-life (in series [7]; in the series “in vitro”) were 3.4 h and 1.02 h, respectively. For the same compound, the bioavailability in series [13] came out at 0%. Further, the Vd in series [14] amounted to 9.5 L/kg.

A word on the pIC50: it is −log10 of the IC50, conventionally taken in molar units. In general, inhibition refers to the percentage by which the read-out fell short of the control. Lower therefore signals a response near the control. For orientation: half-life means the time in which the quantity being followed falls by half. The term bioavailability denotes the share of a dose that reaches the circulation, judged against a reference dose that is usually intravenous. A lower bioavailability goes with little systemic uptake.
